Test results from patent publication US20050002879A1, “External skin compositions” (priority 2001, published 2005).

Legend:
Type in all cases: cell-based
Human keratinocytes [1] = assay: Test Example 1: hyaluronic acid production test in human normal keratinocytes; conditions: N-acetylglucosamine 5 mmol/L, retinyl palmitate 0.0001%, retinoic acid 1.0 mmol/L; for production of hyaluronic acid increased, times as compared with the no-addition group: 24 hours; for Hyaluronic acid production promotion ratio (% ± S.D.): % of hyaluronic acid in medium without test substance, 24 hours after addition
Description: Hyaluronic Acid Production Test to Human Normal Keratinocytes)
(§1) Human keratinocytes (manufactured by Kurabo Industries, Ltd.) were seeded in a 24-well plate, cultured to confluence in a growth medium, and then 5 mmol/L of N-acetylglucosamine, 0.0001% of retinyl palmitate, 0.0001% of retinyl palmitate+5 mmol/L of N-acetylglucosamine, 1.0 mmol/L of retinoic acid, or 1.0 mmol/L of retinoic acid+5 mmol/L of N-acetylglucosamine were added, respectively. 24 hours after the addition, hyaluronic acid released into the medium was determined. The determination of hyaluronic acid was conducted using a commercially available hyaluronic acid determination kit (manufactured by Chugai Diagnostics Science).
The effects of test substances were defined as percentage (%) of the amount of hyaluronic acid in a cultured medium without a test substance.

Human keratinocytes [2] = assay: Test Example 2: hyaluronic acid production test in human keratinocytes (retinoids with or without NAG); conditions: RA 1 mmol/L, ROH 1 mmol/L, RPal 0.001%, RAce 0.001%, NAG 5 mmol/L; for amount of hyaluronic acid released into the medium: n=3, 24 hours
Description: as §1
Hyaluronic Acid Production Test to Human Keratinocytes
In the same manner as in Test Example 1, the test was conducted (n=3). As the test substance, 1 mmol/L of retinoic acid (hereinafter referred to as RA), 1 mmol/L of retinol (hereinafter referred to as ROH), 0.001% of retinyl palmitate (hereinafter referred to as RPal) and 0.001% of retinyl acetate (hereinafter referred to as RAce) were used, and the determination was conducted with respect to the case where 5 mmol/L of N-acetylglucosamine (hereinafter referred to as NAG) and each of the above test substances were simultaneously added. The results are shown below and in FIG. 1.

Human keratinocytes [3] = assay: Test Example 3: hyaluronic acid production promotion test in human keratinocytes (â-carotene with or without NAG); conditions: â-carotene 10 mmol/L; for amount of hyaluronic acid: n=3, 24 hours
Description: as §1
Hyaluronic Acid Production Promotion Test to Human Keratinocytes)
In the same manner as in Test Example 1, the test was conducted and the amount of hyaluronic acid was determined (n=3). As the test substance, 10 mmol/L of â-carotene (hereinafter referred to as âCAR), NAG, and NAG+âCAR were used. The results are shown below and in FIG. 2.

| SMILES | production of hyaluronic acid increased, times as compared with the no-addition group (Human keratinocytes [1]) | Hyaluronic acid production promotion ratio (% ± S.D.) (Human keratinocytes [1]) | production of hyaluronic acid increased, times as compared with the no-addition group (Human keratinocytes [2]) | amount of hyaluronic acid released into the medium (Human keratinocytes [2]) | amount of hyaluronic acid (Human keratinocytes [3]) | production of hyaluronic acid increased, times as compared with the no-addition group (Human keratinocytes [3]) |
| --- | --- | --- | --- | --- | --- | --- |
| CC(=O)N[C@H]1C(O)O[C@H](CO)[C@@H](O)[C@@H]1O (some centres unmarked) [N-acetylglucosamine] | 1.55 times | 155 ± 11.8% | 1.1 times | 0.12 ig/well | 0.18 ig/well | 1.3 times |
| CC1=C(/C=C/C(C)=C/C=C/C(C)=C/C(=O)O)C(C)(C)CCC1 [retinoic acid, reference compound] | 2.5 times | 250 ± 20.8% | 3.4 times | 0.37 ig/well |  |  |
| CC1=C(/C=C/C(C)=C/C=C/C(C)=C/CO)C(C)(C)CCC1 [retinol] |  |  | 1.4 times | 0.15 ig/well |  |  |
| CC(=O)OC/C=C(C)/C=C/C=C(C)/C=C/C1=C(C)CCCC1(C)C [retinyl acetate] |  |  | 1.6 times | 0.18 ig/well |  |  |
| CCCCCCCCCCCCCCCC(=O)OC/C=C(C)/C=C/C=C(C)/C=C/C1=C(C)CCCC1(C)C [retinyl palmitate] | 1.23 times | 123 ± 16.4% | 2.0 times | 0.22 ig/well |  |  |
| CC1=CCCC(C)(C)C1/C=C/C(C)=C/C=C/C(C)=C/C=C/C=C(C)/C=C/C=C(C)/C=C/C1=C(C)CCCC1(C)C (centres unmarked) [â-carotene] |  |  |  |  | 0.16 ig/well | 1.1 times |
